# Reference: patent US20130274254A1, “INHIBITORS OF CYTOCHROME P450 (CYP3A4)” (Gilead Sciences, Inc., priority 2010, published 2013)
# Legend:
# [1] = molecular target: T1, CYP3A4 (Homo sapiens, UniProt P08684); assay: CYP3A inhibition assay, testosterone 6β-hydroxylase activity in pooled human hepatic microsomal fraction
# Protocol: (§1) Pooled (n≧15 donors) human hepatic microsomal fraction was obtained from BD-Gentest (Woburn, Mass.) who also supplied hydroxy-terfenadine, 4′-hydroxydiclofenac and NADPH regenerating system. Ritonavir was prepared from commercial Norvir® oral solution (Abbott Laboratories, Abbott Park, Ill.). Other reagents were from Sigma-Aldrich (St. Louis, Mo.) and included terfenadine, fexofenadine, BRL 15572, diclofenac and mefenamic acid.
# Incubations were performed in duplicate in 50 mM potassium phosphate buffer, pH 7.4 with NADPH regenerating system used as described by the manufacturer. […] The final substrate concentrations used were equal to the apparent Km values for the activities determined under the same conditions. Inhibitors were dissolved in DMSO, and the final concentration of DMSO, from both substrate and inhibitor vehicles, was 1% (v/v). Incubations were performed at 37° C. with shaking and were initiated by addition of substrate. Aliquots were then removed at 0, 7 and 15 minutes. Samples were quenched by treatment with an acetonitrile, formic acid, water (94.8%/0.2%/5%, v/v/v) mixture containing internal standard. Precipitated protein was removed by centrifugation at 3000 rpm for 10 min and aliquots of the supernatant were then subjected to LC-MS analysis.
# The LC-MS system consisted of a Waters Acquity UPLC, with a binary solvent manager and a refrigerated (8° C.) sample organizer and sample manager, interfaced to a Micromass Quattro Premier tandem mass spectrometer operating in electrospray ionization mode. The column was a Waters Acquity UPLC BEH C18 2.1×50 mm, 1.7 μm pore size. Mobile phases consisted of mixtures of acetonitrile, formic acid and water, the composition for mobile phase A being 1%/0.2%/98.8% (v/v/v) and that for mobile phase B being 94.8%/0.2%/5% (v/v/v). The injection volumes were 5 μL and the flow rate was 0.8 mL/min. Concentrations of metabolites were determined by reference to standard curves generated with authentic analytes under the same conditions as the incubations.
# (§2) IC50 values (the concentration of inhibitor reducing CYP3A activity by 50%) were calculated by non-linear regression using GraphPad Prism 4.0 software and a sigmoidal model.
# (§3) For midazolam hydroxylase determination the final concentrations of microsomal protein and terfenadine substrate were 0.25 mg/mL and 2.5 μM, respectively, and the LC-MS internal standard was 1α-hydroxytriazolam. For testosterone hydroxylase activity the final microsomal protein concentration was 0.5 mg/mL, the substrate concentration was 50 μM and the LC-MS internal standard was D7-labeled 6β-hydroxytestosterone. After incubation at 37° C. for 5 minutes, metabolic reactions were terminated by treatment with quench solution containing the appropriate internal standard and were subsequently centrifuged before aliquots of the supernatant were removed and diluted with 0.1% (v/v) formic acid for LC-MS analysis.
# (§4) For LC-MS analysis the column was a Phenomenex Synergi Max RP 4 μm column (50×2.0 mm) and the injection volume was 5 μL. The MS/MS ion current metabolite/internal standard peak area ratios (PAR) were measured on an Applied Biosystems SciEx API4000 triple quadrupole mass spectrometer coupled to a Leap CTC PAL autosampler with a 20 μL loop and a Shimadzu LC pump with a 25 μL mixer. The initial mobile phase consisted of 94.9% water, 0.1% formic acid, and 5% acetonitrile (v/v/v) pumped at 0.5 mL/min. After 0.5 min the acetonitrile concentration was increased to 30% over 0.5 min. The acetonitrile concentration was then further increased to 100% over 0.5 min and held for 1.3 min, after which the column was re equilibrated at the initial conditions for 1.2 min. Rates of metabolite formation were determined from standard curves using PAR determined with authentic metabolite standards.
# [2] = molecular target: T1, CYP3A4; assay: CYP3A inhibition assay, midazolam 1'-hydroxylase activity in pooled human hepatic microsomal fraction; format: biochemical; details: pooled human liver microsomes, pH 7.4, probe midazolam (1'-hydroxylation), 0.25 mg/mL microsomal protein
# Protocol: as §1, with “acid. […]” for “acid.”
# as §2
# as §3, with “For midazolam hydroxylase determination the final concentrations of microsomal protein and terfenadine substrate were 0.25 mg/mL and 2.5 μM, respectively, and the LC-MS internal standard was 1α-hydroxytriazolam.” left out
# as §4
# T1 sequence (P08684 2-503): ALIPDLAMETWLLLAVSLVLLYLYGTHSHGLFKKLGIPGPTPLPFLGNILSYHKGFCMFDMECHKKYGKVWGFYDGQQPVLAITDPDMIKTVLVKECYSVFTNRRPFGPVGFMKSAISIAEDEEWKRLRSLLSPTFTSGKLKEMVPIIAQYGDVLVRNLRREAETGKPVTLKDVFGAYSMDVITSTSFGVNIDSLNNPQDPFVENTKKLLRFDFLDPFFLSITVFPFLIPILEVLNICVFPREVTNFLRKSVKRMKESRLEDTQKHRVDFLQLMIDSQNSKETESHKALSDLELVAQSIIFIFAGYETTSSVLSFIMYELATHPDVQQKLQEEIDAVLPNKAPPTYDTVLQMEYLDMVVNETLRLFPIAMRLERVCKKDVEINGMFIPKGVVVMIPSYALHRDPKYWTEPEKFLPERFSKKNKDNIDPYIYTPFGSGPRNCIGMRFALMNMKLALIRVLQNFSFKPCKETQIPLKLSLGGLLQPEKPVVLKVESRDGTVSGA
SMILES,IC50 [1],IC50 at 5 min [2]
CN(Cc1ccccc1)C(=O)N[C@@H](CCN1CCOCC1)C(=O)N[C@H](CC[C@H](Cc1ccccc1)NC(=O)OCc1cncs1)Cc1ccccc1 [Compound 17],300 nM,0.13 µM
O=C(N[C@H](CC[C@H](Cc1ccccc1)NC(=O)[C@H](CCN1CCOCC1)NC(=O)N1CCOCC1)Cc1ccccc1)OCc1cncs1 [Compound 12],640 nM,0.2 µM
O=C(NC1CCCCC1)N[C@@H](CCN1CCOCC1)C(=O)N[C@H](CC[C@H](Cc1ccccc1)NC(=O)OCc1cncs1)Cc1ccccc1 [Compound 18],350 nM,0.18 µM
CN1CCN(C(=O)N[C@@H](CCN2CCOCC2)C(=O)N[C@H](CC[C@H](Cc2ccccc2)NC(=O)OCc2cncs2)Cc2ccccc2)CC1 [Compound 15],1100 nM,0.41 µM
O=C(N[C@H](CC[C@H](Cc1ccccc1)NC(=O)[C@H](CCN1CCOCC1)NC(=O)N1CCCC1)Cc1ccccc1)OCc1cncs1 [Compound 10],320 nM,0.22 µM
CC(C)CN(C)C(=O)N[C@@H](CCN1CCOCC1)C(=O)N[C@H](CC[C@H](Cc1ccccc1)NC(=O)OCc1cncs1)Cc1ccccc1 [Compound 14],320 nM,0.13 µM
CN(Cc1ccc(F)cc1)C(=O)N[C@@H](CCN1CCOCC1)C(=O)N[C@H](CC[C@H](Cc1ccccc1)NC(=O)OCc1cncs1)Cc1ccccc1 [Compound 20],360 nM,0.11 µM
CC(C)N(C)C(=O)N[C@@H](CCN1CCOCC1)C(=O)N[C@H](CC[C@H](Cc1ccccc1)NC(=O)OCc1cncs1)Cc1ccccc1 [Compound 7],310 nM,0.14 µM
COCCN(C)C(=O)N[C@@H](CCN1CCOCC1)C(=O)N[C@H](CC[C@H](Cc1ccccc1)NC(=O)OCc1cncs1)Cc1ccccc1 [Compound 21],560 nM,0.26 µM
CN(C(=O)N[C@@H](CCN1CCOCC1)C(=O)N[C@H](CC[C@H](Cc1ccccc1)NC(=O)OCc1cncs1)Cc1ccccc1)C1CCCCC1 [Compound 19],280 nM,0.18 µM
CC(C)[C@H](NC(=O)N1CCN(C)CC1)C(=O)N[C@H](CC[C@H](Cc1ccccc1)NC(=O)OCc1cncs1)Cc1ccccc1 [Compound 28],470 nM,0.19 µM
CC(C)[C@H](NC(=O)N1CCOCC1)C(=O)N[C@H](CC[C@H](Cc1ccccc1)NC(=O)OCc1cncs1)Cc1ccccc1 [Compound 27],250 nM,0.11 µM
CN(C)C(=O)N[C@@H](CCN1CCOCC1)C(=O)N[C@H](CC[C@H](Cc1ccccc1)NC(=O)OCc1cncs1)Cc1ccccc1 [Compound 16],710 nM,0.15 µM
CN(C(=O)N[C@@H](CCN1CCOCC1)C(=O)N[C@H](CC[C@H](Cc1ccccc1)NC(=O)OCc1cncs1)Cc1ccccc1)C(C)(C)C [Compound 11],420 nM,0.13 µM

# Other lines, results leading:
IC50 [1],IC50 at 5 min [2],SMILES
290 nM,0.13 µM,CN(Cc1ccco1)C(=O)N[C@@H](CCN1CCOCC1)C(=O)N[C@H](CC[C@H](Cc1ccccc1)NC(=O)OCc1cncs1)Cc1ccccc1 [Compound 60]
220 nM,0.1 µM,CC(=O)NCC[C@H](NC(=O)N1CCCCC1)C(=O)N[C@H](CC[C@H](Cc1ccccc1)NC(=O)OCc1cncs1)Cc1ccccc1 [Compound 40]
400 nM,< 0.1 µM,CC(=O)NCC[C@H](NC(=O)N1CCCCC1)C(=O)N[C@@H](CC[C@@H](Cc1ccccc1)NC(=O)OCc1cncs1)Cc1ccccc1 [Compound 41]
450 nM,0.16 µM,CC(C)c1nc(CN(C)C(=O)N[C@H](C(=O)N[C@H](CC[C@H](Cc2ccccc2)NC(=O)OCc2cccnc2)Cc2ccccc2)C(C)C)cs1 [Compound 73]
1500 nM,0.72 µM,CC(C)c1nc(CN(C)C(=O)N[C@H](C(=O)N[C@H](CC[C@H](Cc2ccccc2)NC(=O)OC(C)(C)C)Cc2ccccc2)C(C)C)cs1 [Compound 70]
410 nM,< 0.1 µM,CC(C)(C)OC(=O)N[C@@H](CCN1CCOCC1)C(=O)N[C@H](CC[C@H](Cc1ccccc1)NC(=O)OCc1cncs1)Cc1ccccc1 [Compound 54]
450 nM,< 0.1 µM,CN(Cc1cccnc1)C(=O)N[C@@H](CCN1CCOCC1)C(=O)N[C@H](CC[C@H](Cc1ccccc1)NC(=O)OCc1cncs1)Cc1ccccc1 [Compound 59]
240 nM,< 0.1 µM,CC(=O)NCC[C@H](NC(=O)N(C)C(C)C)C(=O)N[C@@H](CC[C@@H](Cc1ccccc1)NC(=O)OCc1cncs1)Cc1ccccc1 [Compound 36]
320 nM,< 0.1 µM,CC(C)[C@H](NC(=O)N(C)C(C)C)C(=O)N[C@H](CC[C@H](Cc1ccccc1)NC(=O)OCc1cncs1)Cc1ccccc1 [Compound 29]
530 nM,0.19 µM,CN(Cc1ccccn1)C(=O)N[C@@H](CCN1CCOCC1)C(=O)N[C@H](CC[C@H](Cc1ccccc1)NC(=O)OCc1cncs1)Cc1ccccc1 [Compound 61]
150 nM,0.15 µM,CC(=O)NCC[C@H](NC(=O)N(C)C(C)C)C(=O)N[C@H](CC[C@H](Cc1ccccc1)NC(=O)OCc1cncs1)Cc1ccccc1 [Compound 35]
450 nM,0.19 µM,Cc1ncsc1CCC(=O)N[C@H](CC[C@H](Cc1ccccc1)NC(=O)[C@@H](NC(=O)N(C)Cc1csc(C(C)C)n1)C(C)C)Cc1ccccc1 [Compound 90]
260 nM,< 0.1 µM,CC(C)N(C)C(=O)N[C@H](CCN1CCOCC1)C(=O)N[C@H](CC[C@H](Cc1ccccc1)NC(=O)OCc1cncs1)Cc1ccccc1 [Compound 53]
210 nM,0.18 µM,O=C(N[C@H](CC[C@H](Cc1ccccc1)NC(=O)[C@@H]1C[C@@H](O)CN1C(=O)OCc1ccccc1)Cc1ccccc1)OCc1cncs1 [Compound 67]
2300 nM,0.7 µM,CC(C)c1nc(CN(C)C(=O)N[C@H](C(=O)N[C@H](CC[C@H](Cc2ccccc2)NC(=O)CCc2cccs2)Cc2ccccc2)C(C)C)cs1 [Compound 89]
